The results in this text go back to patent US20130029981A1, “COMPOUNDS, COMPOSITIONS, AND METHODS FOR CONTROLLING BIOFILMS” (Katholieke Universiteit Leuven, priority 2009, published 2013).

Assay [1] deals with Pseudomonas aeruginosa PA14. The experiment in a line: Static peg assay for prevention of biofilm formation (Calgary device, crystal violet). The assay is classed as cell-based. The essentials:
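P. aeruginosa PA14 overnight TSB culture diluted 1:100 into broth with two-fold compound dilutions, biofilms grown 24 h static on polystyrene pegs of a Calgary device at 25 °C (TSB 1/20), 30 °C or 37 °C (CFA and/or LBNS). Biofilm quantified by crystal violet, extracted with 30% acetic acid, A570.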

Assay [2] relates to Pseudomonas aeruginosa PA14. The experiment in a line: Bioscreen assay: influence on planktonic growth curve. The assay is classed as cell-based. Also on record: key: x: no influence on the planktonic growth at the IC50 for biofilm inhibition; ∘: planktonic growth is retarded at the IC50 for biofilm inhibition. Conditions: planktonic growth at the IC50 for biofilm inhibition, 25° C. An excerpt: (§1) Some of the tested compounds show a concentration range in which biofilm formation is inhibited but no effect on planktonic growth is observed. These compounds are particularly interesting for prevention of biofilm formation since the development of resistance against these compounds is less likely. Table 8 indicates whether the different compounds have an effect on the planktonic growth of the bacteria at the IC50 for biofilm inhibition. To construct Table 8, the effect of the tested compounds on the growth curve of the bacteria was determined at a concentration equal to the IC50 for biofilm inhibition, by using the Bioscreen system available from Oy Growth Curves Ab Ltd). The Bioscreen device from Oy Growth Curves Ab Ltd was used for measuring the influence of the chemical compounds on the planktonic growth of Salmonella Typhimurium and Pseudomonas aeruginosa. The Bioscreen is a computer controlled incubator/reader/shaker that uses 10×10 well microtiter plates and measures light absorbance of each well at a specified wave length in function of time. An overnight culture of S. […] The broth used was TSB 1/20 for the experiments at 16° C. and 25° C. For experiments at 37° C. CFA medium was used for S. […] As a control 3 μl of the appropriate solvent (DMSO or EtOH) was also added to the plate in 3- or 4-fold. The microtiter plate was incubated in the Bioscreen device at 16° C., 25° C. or 37° C. for at least 36 hours, with continious medium shaking. The absorbance of each well was measured at 600 nm each 15 minutes. Excel was used to generate the growth curves for treated the treated wells and the untreated control wells. Some of the compounds show a concentration range in which biofilm formation is inhibited but no effect on the planktonic growth is observed. […] To construct this table the effect of the compounds on the growth curve of the bacteria was determined at a concentration equal to the IC50 for biofilm inhibtion, by using the Bioscreen system from Oy Growth Curves Ab Ltd.

For assay [3], the system named is S. Typhimurium ATCC14028. The description is as above. The assay is classed as cell-based, Salmonella Typhimurium. Set-up: key: x: no influence on planktonic growth at the IC50 for biofilm inhibition; planktonic growth is retarded at the IC50 for biofilm inhibition. Conditions: planktonic growth at the IC50 for biofilm inhibition, 25° C.
Source text: as §1

Assay [4] concerns Pseudomonas aeruginosa PA14. The assay is described as above. The class given is cell-based. Also on record: key: x: no influence on planktonic growth at the IC50 for biofilm inhibition; planktonic growth is retarded at the IC50 for biofilm inhibition. As to conditions: planktonic growth at the IC50 for biofilm inhibition, 25° C. The source says:
Some of the tested compounds show a concentration range in which biofilm formation is inhibited but no effect on planktonic growth is observed. These compounds are particularly interesting for prevention of biofilm formation since the development of resistance against these compounds is less likely. Table 8 indicates whether the different compounds have an effect on the planktonic growth of the bacteria at the IC50 for biofilm inhibition. To construct Table 8, the effect of the tested compounds on the growth curve of the bacteria was determined at a concentration equal to the IC50 for biofilm inhibition, by using the Bioscreen system available from Oy Growth Curves Ab Ltd). The Bioscreen device from Oy Growth Curves Ab Ltd was used for measuring the influence of the chemical compounds on the planktonic growth of Salmonella Typhimurium and Pseudomonas aeruginosa. The Bioscreen is a computer controlled incubator/reader/shaker that uses 10×10 well microtiter plates and measures light absorbance of each well at a specified wave length in function of time. An overnight culture of S. […] The absorbance of each well was measured at 600 nm each 15 minutes. […] To construct this table the effect of the compounds on the growth curve of the bacteria was determined at a concentration equal to the IC50 for biofilm inhibtion, by using the Bioscreen system from Oy Growth Curves Ab Ltd.

For assay [5], the system named is S. Typhimurium ATCC14028. Described as above. The assay is classed as cell-based, Salmonella Typhimurium. As to conditions: 400 μM. The source says:
Some of the tested compounds show a concentration range in which biofilm formation is inhibited but no effect on planktonic growth is observed. These compounds are particularly interesting for prevention of biofilm formation since the development of resistance against these compounds is less likely. Table 8 indicates whether the different compounds have an effect on the planktonic growth of the bacteria at the IC50 for biofilm inhibition. To construct Table 8, the effect of the tested compounds on the growth curve of the bacteria was determined at a concentration equal to the IC50 for biofilm inhibition, by using the Bioscreen system available from Oy Growth Curves Ab Ltd). The Bioscreen device from Oy Growth Curves Ab Ltd was used for measuring the influence of the chemical compounds on the planktonic growth of Salmonella Typhimurium and Pseudomonas aeruginosa. The Bioscreen is a computer controlled incubator/reader/shaker that uses 10×10 well microtiter plates and measures light absorbance of each well at a specified wave length in function of time. An overnight culture of S. […] The broth used was TSB 1/20 for the experiments at 16° C. and 25° C. For experiments at 37° C. CFA medium was used for S. […] As a control 3 μl of the appropriate solvent (DMSO or EtOH) was also added to the plate in 3- or 4-fold. The microtiter plate was incubated in the Bioscreen device at 16° C., 25° C. or 37° C. for at least 36 hours, with continious medium shaking. The absorbance of each well was measured at 600 nm each 15 minutes. Excel was used to generate the growth curves for treated the treated wells and the untreated control wells. Some of the compounds show a concentration range in which biofilm formation is inhibited but no effect on the planktonic growth is observed. Table 14 indicates if the different compounds have an effect on the planktonic growth of the bacteria at the IC50 for biofilm inhibition. To construct this table the effect of the compounds on the growth curve of the bacteria was determined at a concentration equal to the IC50 for biofilm inhibtion, by using the Bioscreen system from Oy Growth Curves Ab Ltd.

[6] abbreviates: 25° C., Table 12, read-out: IC50 (biofilm formation).
Where [7] appears, read: 25° C., Table 14, read-out: IC50 biofilm inhibition.
Setting [8] is: 25° C., Table 18, read-out: P. aeruginosa IC50 (biofilm formation).
Setting [9] is: 37° C., read-out: IC50 (biofilm formation).

Where two headings read alike, the source gives them in different places.

The term IC50 denotes the concentration needed to halve the response being measured. For the compound `CCCCCCN1c2nccc[n+]2CC1(O)c1ccc([N+](=O)[O-])cc1.[Br-]` (stereo not drawn) [Compound 34], the IC50 in assay [1] (25° C., 24 hours, Table 15, read-out: (2) IC50 (biofilm inhibition)) is 10.9 µM; in assay [1] (25° C., Table 16, read-out: P. aeruginosa IC50 (biofilm formation)), 12.4 µM.

As to `OC1(c2ccc(Cl)cc2)C[n+]2cccnc2N1C1CCCCC1.[Br-]` (stereo not drawn) [Compound 64], the IC50 in assay [1] (setting [6]) worked out at 4.94 µM; in assay [1] (setting [7]) it was 4.94 µM; in assay [1] (setting [8]) it was 10 µM. In assay [2], the Influence on growth entry is reported as “x”.

As for `O=[N+]([O-])c1ccc(C2(O)C[n+]3cccnc3N2C2CCCCCCCCCCC2)cc1.[Br-]` (stereo not drawn) [Compound 69], the half-maximal inhibitory concentration (IC50) came to 6.32 µM in assay [1] (setting [6]), 6.32 µM in assay [1] (setting [7]), 6.9 µM in assay [1] (setting [8]) and 18.2 µM in assay [1] (setting [9]). Besides, the Influence on growth entry (with S. Typhimurium ATCC14028 [3]; in assay [4]) was “∘” throughout.

Consider `OC1(c2ccc(I)cc2)C[n+]2cccnc2N1Cc1ccccc1.[Br-]` (stereo not drawn) [Compound 73], for which the concentration for half-maximal inhibition (IC50) worked out at 8.61 µM in assay [1] (setting [6]), 8.61 µM in assay [1] (setting [7]) and 175 µM in assay [1] (setting [9]). Besides, in the assay with S. Typhimurium ATCC14028 [5], the “Effect on growth at 400 μM” value was “∘”. Moreover, the Influence on growth entry in assay [2] is “x”.

Turning to `OC1(c2ccc(-c3ccccc3)cc2)C[n+]2cccnc2N1C1CCCC1.[Br-]` (stereo not drawn) [R1=Cyclopentyl, R3=4-biphenylyl, R4=H, 1-cyclopentyl-2-hydroxy-2-(4-biphenylyl)-2,3-dihydro-1H-imidazo[1,2-a]pyrimidin-4-ium bromide], the IC50 was 1.57 µM in assay [1] (Pseudomonas aeruginosa, PA14, 25° C., Table 12, read-out: IC50 (biofilm formation)); 1.57 µM in assay [1] (Pseudomonas aeruginosa, PA14, 25° C., Table 14, read-out: IC50 biofilm inhibition); 62.1 µM in assay [1] (Pseudomonas aeruginosa, PA14, 37° C., read-out: IC50 (biofilm formation)). In addition, the Influence on growth entry in assay [2] is reported as “x”.
